Data from PubChem BioAssay AID248 (DTP/NCI, 2004).
Where “and” joins values, the source holds several entries; their conditions need not be identical. Identical values can stand only once. Inconclusive results and toxic doses are left out. Square brackets hold non-standard residues; d marks the D form. Peptide text beside a SMILES is read from it. * marks the point of attachment. ξ: configuration not given here. ξF = NC(Cc1ccccc1)C(=O)O; Cbz = O=C(OCc1ccccc1)*

Tested on: L1210 leukemia ip in BDF1 mice, survival T/C
Experiment: NCI In Vivo Anticancer Drug Screen. Data for tumor model L1210 Leukemia (intraperitoneal) in B6D2F1 (BDF1) mice
Conditions: endpoint: mean survival time, higher = longer survival
Procedure, shortened: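 Tumor was transplanted into mice, which were then dosed with test compound or vehicle alone. Survival was recorded for each group, and the treated figure was expressed relative to the control figure.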

[1] = dose: 100.0 mg/kg/injection, schedule: Q04DX003 (ip), vehicle: saline with Tween-80
[2] = dose: 100.0 mg/kg/injection, schedule: Q01DX009 (ip), vehicle: saline with Tween-80
[3] = dose: 200.0 mg/kg/injection, schedule: Q01DX009 (ip), vehicle: saline with Tween-80
[4] = dose: 200.0 mg/kg/injection, schedule: Q04DX003 (ip), vehicle: saline with Tween-80
[5] = dose: 400.0 mg/kg/injection, schedule: Q01DX009 (ip), vehicle: saline with Tween-80
[6] = dose: 400.0 mg/kg/injection, schedule: Q04DX003 (ip), vehicle: saline with Tween-80
[7] = dose: 100.0 mg/kg/injection, schedule: Q04DX002 (ip), vehicle: saline with Tween-80
[8] = dose: 200.0 mg/kg/injection, schedule: Q04DX002 (ip), vehicle: saline with Tween-80
[9] = dose: 50.0 mg/kg/injection, schedule: Q04DX002 (ip), vehicle: Klucel (hydroxypropylcellulose) (HPC)
[10] = dose: 100.0 mg/kg/injection, schedule: Q01DX009 (ip), vehicle: Klucel (hydroxypropylcellulose) (HPC)
[11] = dose: 100.0 mg/kg/injection, schedule: Q04DX002 (ip), vehicle: Klucel (hydroxypropylcellulose) (HPC)
[12] = dose: 200.0 mg/kg/injection, schedule: Q04DX002 (ip), vehicle: Klucel (hydroxypropylcellulose) (HPC)

In the case of `NS(=O)(=O)c1ccc(-c2ccc([As](=O)(O)O)cc2)cc1`, the T/C (dose: 5.0 mg/kg/injection, schedule: Q01DX001 (ip), vehicle: saline) is reported as 96 % of control, the T/C (dose: 10.0 mg/kg/injection, schedule: Q01DX001 (ip), vehicle: saline) is reported as 87 % of control and the T/C (dose: 20.0 mg/kg/injection, schedule: Q01DX001 (ip), vehicle: saline) is reported as 98 % of control. The T/C (dose: 40.0 mg/kg/injection, schedule: Q01DX001 (ip), vehicle: saline) was 96 % of control and the T/C (dose: 80.0 mg/kg/injection, schedule: Q01DX001 (ip), vehicle: saline) was 98 % of control.
With `O=C(Nc1ccc(F)cc1)c1cccc(C(=O)Nc2ccc(F)cc2)c1` the T/C (dose: 25.0 mg/kg/injection, schedule: Q04DX003 (ip), vehicle: saline with Tween-80) was 96 % of control, the T/C (dose: 50.0 mg/kg/injection, schedule: Q04DX003 (ip), vehicle: saline with Tween-80) was 93 % of control and the T/C [1] was 95 % of control and 87 % of control.
With `NC(=S)c1cn(C2OC(CO)C(O)C2O)c2ncncc12` (stereo not given) the T/C (dose: 100.0 mg/kg/injection, schedule: Q01DX005 (ip), vehicle: saline) was 164 % of control and the T/C (dose: 200.0 mg/kg/injection, schedule: Q01DX005 (ip), vehicle: saline) was 167 % of control.
For `O=C(C=C(C(F)(F)F)C(F)(F)F)c1cccc2ccccc12`, the T/C (dose: 12.5 mg/kg/injection, schedule: Q01DX009 (ip), vehicle: gum acacia) was 107 % of control, the T/C (dose: 25.0 mg/kg/injection, schedule: Q01DX009 (ip), vehicle: gum acacia) was 100 % of control and the T/C (dose: 50.0 mg/kg/injection, schedule: Q01DX009 (ip), vehicle: gum acacia) was 100 % of control. The T/C (dose: 100.0 mg/kg/injection, schedule: Q04DX003 (ip), vehicle: gum acacia) was 100 % of control, the T/C (dose: 200.0 mg/kg/injection, schedule: Q04DX003 (ip), vehicle: gum acacia) was 97 % of control and the T/C (dose: 400.0 mg/kg/injection, schedule: Q04DX003 (ip), vehicle: gum acacia) was 91 % of control.
In the case of `BrCCOc1ccccc1`, the T/C (dose: 100.0 mg/kg/injection, schedule: Q01DX009 (ip), vehicle: other) is reported as 95 % of control and the T/C (dose: 200.0 mg/kg/injection, schedule: Q01DX009 (ip), vehicle: other) is reported as 101 % of control.
For `BrC1(Br)C2CC3C(CC21)C1CC2C(CC31)C2(Br)Br` (stereo not given), the T/C [2] was 97 % of control, the T/C [1] was 94 % of control and the T/C [3] was 96 % of control. The T/C [4] was 95 % of control, the T/C [5] was 105 % of control and the T/C [6] was 92 % of control.
`CC(C)C1CCC2=C(CCC3C(C)(C(=O)O)CCCC23C)C1` (stereo not given) was tested, and the T/C [2] was 89 % of control, the T/C [3] was 91 % of control and the T/C [5] was 89 % of control.
`CN(C)[C](=O)[Pb]([c]1ccccc1)([c]1ccccc1)[c]1ccccc1` was tested, and the T/C [7] was 98 % of control and the T/C [8] was 98 % of control.
For `O=C(NC(C(=O)c1ccccc1)c1ccccc1)c1ccccc1` (stereo not given), the T/C [9] was 98 % of control, the T/C [10] was 86 % of control and the T/C [11] was 92 % of control. The T/C [12] was 106 % of control and the T/C (dose: 400.0 mg/kg/injection, schedule: Q01DX009 (ip), vehicle: Klucel (hydroxypropylcellulose) (HPC)) was 101 % of control.
In the case of `O=[N+]([O-])c1c(Cl)sc(Cl)c1[N+](=O)[O-]`, the T/C (dose: 3.13 mg/kg/injection, schedule: Q01DX009 (ip), vehicle: saline sonified) is reported as 98 % of control, the T/C (dose: 6.25 mg/kg/injection, schedule: Q01DX009 (ip), vehicle: saline sonified) is reported as 100 % of control and the T/C (dose: 6.25 mg/kg/injection, schedule: Q04DX003 (ip), vehicle: Klucel (hydroxypropylcellulose) (HPC)) is reported as 86 % of control. The T/C (dose: 12.5 mg/kg/injection, schedule: Q01DX009 (ip), vehicle: saline sonified) was 101 % of control and the T/C (dose: 12.5 mg/kg/injection, schedule: Q04DX003 (ip), vehicle: Klucel (hydroxypropylcellulose) (HPC)) was 86 % of control.
With `COC(=O)/C(=C\c1ccc([N+](=O)[O-])s1)C(C)=O` the T/C (dose: 6.25 mg/kg/injection, schedule: Q01DX005 (ip), vehicle: saline with Tween-80) was 92 % of control, the T/C (dose: 12.5 mg/kg/injection, schedule: Q01DX005 (ip), vehicle: saline with Tween-80) was 94 % of control and the T/C (dose: 12.5 mg/kg/injection, schedule: Q04DX003 (ip), vehicle: saline) was 94 % of control. The T/C (dose: 25.0 mg/kg/injection, schedule: Q04DX003 (ip), vehicle: saline) was 96 % of control and the T/C (dose: 50.0 mg/kg/injection, schedule: Q04DX003 (ip), vehicle: saline) was 86 % of control.
With `Cc1nc(C#N)c(C#N)nc1-c1ccccc1` the T/C [7] was 95 % of control, the T/C [8] was 95 % of control and the T/C (dose: 400.0 mg/kg/injection, schedule: Q04DX002 (ip), vehicle: saline with Tween-80) was 95 % of control.
For `CC(C)CC(=O)NC(C)C(=O)NC(Cc1ccccc1)C(=O)CCl` (stereo not given), the T/C (dose: 12.0 mg/kg/injection, schedule: Q04DX002 (ip), vehicle: Klucel (hydroxypropylcellulose) (HPC)) was 109 % of control, the T/C (dose: 25.0 mg/kg/injection, schedule: Q04DX002 (ip), vehicle: Klucel (hydroxypropylcellulose) (HPC)) was 98 % of control and the T/C [9] was 106 % of control.
For `COC(=O)C(Cc1ccccc1)NC(=O)CNC(=O)OCc1ccccc1` (stereo not drawn) (Cbz-Gly-[ξF]-OMe), the T/C (dose: 100.0 mg/kg/injection, schedule: Q04DX003 (ip), vehicle: other) was 106 % of control, the T/C (dose: 200.0 mg/kg/injection, schedule: Q04DX003 (ip), vehicle: other) was 101 % of control and the T/C (dose: 400.0 mg/kg/injection, schedule: Q04DX003 (ip), vehicle: other) was 106 % of control.
For `O=C(NNC(=S)NC1CC2C=CC1C2)c1cccnc1` (stereo not given), the T/C [10] was 111 % of control and the T/C (dose: 200.0 mg/kg/injection, schedule: Q01DX009 (ip), vehicle: Klucel (hydroxypropylcellulose) (HPC)) was 101 % of control.
With `CCCCC(N)P(=O)(O)O` (stereo not given) the T/C (dose: 25.0 mg/kg/injection, schedule: Q04DX002 (ip), vehicle: saline) was 110 % of control, the T/C (dose: 50.0 mg/kg/injection, schedule: Q04DX002 (ip), vehicle: saline) was 105 % of control and the T/C (dose: 100.0 mg/kg/injection, schedule: Q04DX002 (ip), vehicle: saline) was 95 % of control.
With `CCOC(=O)CNC(=O)CBr` the T/C (dose: 10.0 mg/kg/injection, schedule: Q01DX Z (ip), vehicle: other) was 103 % of control and the T/C (dose: 20.0 mg/kg/injection, schedule: Q01DX Z (ip), vehicle: other) was 91 % of control.
For `CCCCCCCCCCNc1ccc(Cl)nn1`, the T/C [1] was 93 % of control, the T/C [4] was 93 % of control and the T/C [6] was 90 % of control.
With `Cc1cc(N=Nc2ccc([N+](=O)[O-])cc2)ccc1O` the T/C (dose: 100.0 mg/kg/injection, schedule: Q01DX001 (ip), vehicle: Klucel (hydroxypropylcellulose) (HPC)) was 98 % of control and the T/C (dose: 200.0 mg/kg/injection, schedule: Q01DX001 (ip), vehicle: Klucel (hydroxypropylcellulose) (HPC)) was 95 % of control.
In the case of `CCCCOP(=O)(/C=C/c1ccc([N+](=O)[O-])cc1)OCCCC`, the T/C [11] is reported as 97 % of control, the T/C [12] is reported as 93 % of control and the T/C (dose: 400.0 mg/kg/injection, schedule: Q04DX002 (ip), vehicle: Klucel (hydroxypropylcellulose) (HPC)) is reported as 108 % of control.
For `CC1=CC2=C(C=O)C(=O)[C@](C)(O)[C@@H](O)C2=CO1`, the T/C (dose: 50.0 mg/kg/injection, schedule: Q01DX009 (ip), vehicle: saline with Tween-80) was 109 % of control, the T/C [1] was 93 % of control and the T/C [4] was 117 % of control.
In the case of `CCOP(=O)(OCC)c1cccc(Cl)c1`, the T/C (dose: 75.0 mg/kg/injection, schedule: Q01DX001 (ip), vehicle: saline) is reported as 101 % of control.
`CC12CCc3occc3C1CCC13CC(CO)C(O)(CCC12)C3` (stereo not given) was tested, and the T/C (dose: 100.0 mg/kg/injection, schedule: Q04DX003 (ip), vehicle: saline) was 94 % of control and the T/C (dose: 200.0 mg/kg/injection, schedule: Q04DX003 (ip), vehicle: saline) was 93 % of control.
For `CCCCCCCCN1C(=O)c2ccccc2S1(=O)=O`, the T/C (dose: 222.0 mg/kg/injection, schedule: Q01DX Z (ip), vehicle: saline) was 105 % of control, the T/C (dose: 333.0 mg/kg/injection, schedule: Q01DX Z (ip), vehicle: saline) was 100 % of control and the T/C (dose: 500.0 mg/kg/injection, schedule: Q01DX Z (ip), vehicle: saline) was 113 % of control.
`Cc1ccc2c(c1)CN(C13CC4CC(CC(C4)C1)C3)CO2` was tested, and the T/C (dose: 100.0 mg/kg/injection, schedule: Q04DX003 (ip), vehicle: saline sonified) was 91 % of control, the T/C (dose: 200.0 mg/kg/injection, schedule: Q04DX003 (ip), vehicle: saline sonified) was 102 % of control and the T/C (dose: 400.0 mg/kg/injection, schedule: Q04DX003 (ip), vehicle: saline sonified) was 93 % of control.
